Test results reported in ChEMBL document CHEMBL4725399, “Galangin ameliorated pulmonary fibrosis in vivo and in vitro by regulating epithelial-mesenchymal transition” (Bioorg Med Chem, 2020).
Activity calls are given as the source filed them. The calls are words filed in the database; no cut-off is given here.

Columns and labels:
A549 [1] = assay: Up regulation of E-cadherin level in TGF-beta-stimulated human A549 cells at 50 uM by Western blot analysis; assay type: functional, cell-based; details: time 24.0 hrs
Mus musculus [2] = assay: Antifibrotic activity in C57BL/6 mouse model of bleomycin-induced lung fibrosis assessed as reduction in CD4+CD69+ T-cells at 25 mg/kg dosed via oral gavage for 14 days by flow cytometry analysis; assay type: functional, organism-based; details: dose 25.0 […], time 14.0 day
Mus musculus [3] = assay: Antifibrotic activity in C57BL/6 mouse model of bleomycin-induced lung fibrosis assessed as reduction in weight loss at 50 mg/kg dosed via oral gavage and measured for 7 to 14 days; assay type: functional, organism-based; details: time day 7-14
Mus musculus [4] = assay: Antifibrotic activity in C57BL/6 mouse model of bleomycin-induced lung fibrosis assessed as reduction in weight loss at 25 mg/kg dosed via oral gavage and measured for 7 to 14 days; assay type: functional, organism-based; details: time day 7-14
Mus musculus [5] = assay: Inhibition of epithelial-mesenchymal transition in C57BL/6 mouse model of bleomycin-induced lung fibrosis assessed as decrease in alpha-SMA protein expression in lung tissue at 25 to 50 mg/kg dosed via oral gavage for 14 days by Western blotting analysis; assay type: functional, organism-based; details: dose mg/kg 25-50, time 14.0 day
Mus musculus [6] = assay: Antifibrotic activity in C57BL/6 mouse model of bleomycin-induced lung fibrosis assessed as reduction in dendritic cells at 25 mg/kg dosed via oral gavage for 14 days by flow cytometry analysis; assay type: functional, organism-based; details: time 14.0 day
A549 [7] = assay: Down regulation of vimentin protein expression in human A549 cells at 50 uM by Western blotting analysis; assay type: functional, cell-based; details: time 24.0 hrs
Mus musculus [8] = assay: Inhibition of epithelial-mesenchymal transition in C57BL/6 mouse model of bleomycin-induced lung fibrosis assessed as decrease in vimentin protein expression in lung tissue at 25 to 50 mg/kg dosed via oral gavage for 14 days by Western blotting analysis; assay type: functional, organism-based; details: dose mg/kg 25-50, time 14.0 day
NIH3T3 [9] = assay: Antifibrotic activity in mouse NIH3T3 cells assessed as reduction in TGF-beta1 induced myofibroblast differentiation by measuring reduction in alpha-SMA protein expression at 40 uM after 24 hrs by immunofluorescence staining analysis; assay type: functional, cell-based
A549 [10] = assay: Cytotoxicity against human A549 cells assessed as reduction in cell viability after 24 to 72 hrs by MTT assay; assay type: functional, cell-based; details: time hrs 24-72
Mus musculus [11] = assay: Antifibrotic activity in C57BL/6 mouse model of bleomycin-induced lung fibrosis assessed as reduction in CD8+CD69+ T-cells at 25 mg/kg dosed via oral gavage for 14 days by flow cytometry analysis; assay type: functional, organism-based; details: time 14.0 day
Mus musculus [12] = assay: Antifibrotic activity in bleomycin-induced C57BL/6 mouse model of lung fibrosis assessed as reduction in Ashcroft score at 25 to 50 mg/kg dosed via oral gavage for 14 days by H and E and Masson's trichrome staining based histopathological analysis; assay type: functional, organism-based; details: dose mg/kg 25-50, time 14.0 day
Mus musculus [13] = assay: Antifibrotic activity in C57BL/6 mouse model of bleomycin-induced lung fibrosis assessed as inhibition of pathological changes by measuring inflammatory infiltration in lung tissue at 25 to 50 mg/kg dosed via oral gavage for 14 days by H and E staining-based histopathological analysis; assay type: functional, organism-based; details: dose mg/kg 25-50, time 14.0 day
NIH3T3 [14] = assay: Antifibrotic activity in mouse NIH3T3 cells assessed as decrease in TGF-beta1 induced alpha-SMA protein expression at 40 uM after 24 hrs by Western blotting analysis; assay type: functional, cell-based
Mus musculus [15] = assay: Antifibrotic activity in C57BL/6 mouse model of bleomycin-induced lung fibrosis assessed as reduction in CD4+CD69+ T-cells at 50 mg/kg dosed via oral gavage for 14 days by flow cytometry analysis; assay type: functional, organism-based; details: time 14.0 day
Mus musculus [16] = assay: Antifibrotic activity in C57BL/6 mouse model of bleomycin-induced lung fibrosis assessed as inhibition of pathological changes by measuring inflammatory infiltration in lung tissue at 25 to 50 mg/kg dosed via oral gavage for 14 days by Masson's trichrome staining-based histopathological analysis; assay type: functional, organism-based; details: dose mg/kg 25-50, time 14.0 day
NIH3T3 [17] = assay: Antifibrotic activity in mouse NIH3T3 cells assessed as up regulation of TGF-beta1 inhibited E-cadherin protein expression at 40 uM after 24 hrs by Western blotting analysis; assay type: functional, cell-based
Mus musculus [18] = assay: Antifibrotic activity in C57BL/6 mouse model of bleomycin-induced lung fibrosis assessed as inhibition of pathological changes by measuring collagen deposition in lung tissue at 25 to 50 mg/kg dosed via oral gavage for 14 days by H and E staining-based histopathological analysis; assay type: functional, organism-based; details: dose mg/kg 25-50, time 14.0 day
Mus musculus [19] = assay: Antifibrotic activity in bleomycin-induced C57BL/6 mouse model of lung fibrosis assessed as reduction in fibroblast differentiation by measuring alpha-SMA at 25 to 50 mg/kg dosed via oral gavage for 14 days by measuring reduction in alpha-SMA protein expression by immunohistochemical analysis; assay type: functional, organism-based; details: dose mg/kg 25-50, time 14.0 day
Mus musculus [20] = assay: Antifibrotic activity in C57BL/6 mouse model of bleomycin-induced lung fibrosis assessed as inhibition of pathological changes by measuring collagen deposition in lung tissue at 25 to 50 mg/kg dosed via oral gavage for 14 days by Masson's trichrome staining-based histopathological analysis; assay type: functional, organism-based; details: dose mg/kg 25-50, time 14.0 day
NIH3T3 [21] = assay: Antifibrotic activity in mouse NIH3T3 cells assessed as decrease in TGF-beta1 induced MMP-9 protein expression at 40 uM after 24 hrs by Western blotting analysis; assay type: functional, cell-based
Mus musculus [22] = assay: Antifibrotic activity in po dosed C57BL/6 mouse model of bleomycin-induced lung fibrosis assessed as reduction in weight loss after 7 to 14 days; assay type: functional, organism-based; details: dose mg/kg 25-50, time day 7-14
A549 [23] = assay: Down regulation of alpha-SMA protein expression in human A549 cells at 50 uM by Western blotting analysis; assay type: functional, cell-based; details: time 24.0 hrs
Mus musculus [24] = assay: Antifibrotic activity in C57BL/6 mouse model of bleomycin-induced lung fibrosis assessed as reduction in dendritic cells at 50 mg/kg dosed via oral gavage for 14 days by flow cytometry analysis; assay type: functional, organism-based; details: time 14.0 day
Mus musculus [25] = assay: Antifibrotic activity in C57BL/6 mouse model of bleomycin-induced lung fibrosis assessed as reduction in CD8+CD69+ T-cells at 50 mg/kg dosed via oral gavage for 14 days by flow cytometry analysis; assay type: functional, organism-based; details: time 14.0 day
NIH3T3 [26] = assay: Cytotoxicity against mouse NIH3T3 cells assessed as reduction in cell viability after 24 to 72 hrs by MTT assay; assay type: cell-based; details: time 24-72 hrs
A549 [27] = assay: Antimigratory activity in human A549 cells assessed as inhibition of TGF-beta1 induced epithelial-mesenchymal transition at 50 uM pretreated with TGF-beta1 for 1 hr followed by compound addition and measured after 24 hrs by scratch wound healing based microscopic analysis; assay type: functional, cell-based
Mus musculus [28] = assay: Inhibition of epithelial-mesenchymal transition in C57BL/6 mouse model of bleomycin-induced lung fibrosis assessed as increase in E-cadherin protein expression in lung tissue at 25 to 50 mg/kg dosed via oral gavage for 14 days by Western blotting analysis; assay type: functional, organism-based; details: dose mg/kg 25-50, time 14.0 day
A549 [29] = assay: Inhibition of cell migration in TGF-beta-stimulated human A549 cells at 50 uM after 24 hrs by optical microscopic based wound healing assay; assay type: functional

## O=c1c(O)c(-c2ccccc2)oc2cc(O)cc(O)c12 [GALANGIN]
A549 [1]
  Activity: Active
Mus musculus [2]
  Activity: inactive
Mus musculus [3]
  Activity: Active
Mus musculus [4]
  Activity: inactive
Mus musculus [5]
  Activity: Active
Mus musculus [6]
  Activity: inactive
A549 [7]
  Activity: Active
Mus musculus [8]
  Activity: Active
NIH3T3 [9]
  Activity: Active
A549 [10]
  Activity: Active
Mus musculus [11]
  Activity: inactive
Mus musculus [12]
  Activity: Active
Mus musculus [13]
  Activity: Active
NIH3T3 [14]
  Activity: Active
Mus musculus [15]
  Activity: Active
Mus musculus [16]
  Activity: Active
NIH3T3 [17]
  Activity: Active
Mus musculus [18]
  Activity: Active
Mus musculus [19]
  Activity: Active
Mus musculus [20]
  Activity: Active
NIH3T3 [21]
  Activity: Active
Mus musculus [22]
  Activity: Dose-dependent effect
A549 [23]
  Activity: Active
Mus musculus [24]
  Activity: Active
Mus musculus [25]
  Activity: Active
NIH3T3 [26]
  Activity: Toxic
A549 [27]
  Activity: Active
Mus musculus [28]
  Activity: Active
A549 [29]
  inhibition: Active
